Test results: patent EP4745137A1 (Gluetacs Therapeutics (Shanghai) Co., Ltd., priority 2023, dated 2025)

What was measured:
Assay type in all cases: cell-based
Conditions in all cases: 24 hours of compound treatment
CK1α = target: T1, CK1α (Homo sapiens, UniProt P48729+Q96SW2); assay: Western-blot assay of substrate protein degradation in hPBMCs, CK1α
T1 construct: endogenous in cells; host or cells: hPBMCs (Milecell Biotechnologies)
Experimental: (§1) After 24 hours of compounds treatment, cells were harvested and lysed in RIPA protein lysate containing protease inhibitors on ice for 30 min, followed by centrifugation. The supernatant was aspirated as the extracted total cell protein. The protein concentration of the supernatant was determined using the conventional BCA (Bicinchoninic Acid) assay. • (2) To the collected supernatant, 5X SDS sample loading buffer was added, followed by denaturation at 95°C for 5 minutes. The denatured samples were then separated by SDS-PAGE electrophoresis on a polyacrylamide gel, transferred onto a nitrocellulose membrane (0.45 µm NC membrane), blocked with blocking buffer at room temperature for 1 hour, and subjected to antibody incubation and development procedures according to the antibody manufacturer's instructions (Cell Signaling Technology Company). […]
(§2) Target protein remaining (%) refers to the percentage of target protein remaining in cells after treatment with protein degrader compounds.
(§3) Calculation method for target protein remaining (%): Use ImageJ software to measure grayscale values of Western blot bands from drug (protein degrader)-treated samples. The grayscale value of drug-treated bands is divided by that of internal control protein bands, and the resulting quotient is normalized to obtain the relative percentage of remaining target protein after protein degrader treatment. Target protein degradation rate(%) = 1−target protein remaining(%). [formula]

IKZF2 = target: T2, IKZF2 (Homo sapiens, UniProt Q96SW2+Q9UKS7); assay: Western-blot assay of substrate protein degradation in hPBMCs, IKZF2
T2 construct: endogenous in cells; host or cells: hPBMCs (Milecell Biotechnologies)
Experimental: as §1, §2, §3

GSPT1 = target: T3, GSPT1 (Homo sapiens, UniProt P15170+Q96SW2); assay: Western-blot assay of substrate protein degradation in hPBMCs, GSPT1
T3 construct: endogenous in cells; host or cells: hPBMCs (Milecell Biotechnologies)
Experimental: as §1, §2, §3

IKZF3 = target: T4, IKZF3 (Homo sapiens, UniProt Q96SW2+Q9UKT9); assay: Western-blot assay of substrate protein degradation in hPBMCs, IKZF3
T4 construct: endogenous in cells; host or cells: hPBMCs (Milecell Biotechnologies)
Experimental: as §1, §2, §3

IKZF1 = target: T5, IKZF1 (Homo sapiens, UniProt Q13422+Q96SW2); assay: Western-blot assay of substrate protein degradation in hPBMCs, IKZF1
T5 construct: endogenous in cells; host or cells: hPBMCs (Milecell Biotechnologies)
Experimental: as §1, §2, §3

WEE1 = target: T6, WEE1 (Homo sapiens, UniProt P30291+Q96SW2); assay: Western-blot assay of substrate protein degradation in hPBMCs, WEE1
T6 construct: endogenous in cells; host or cells: hPBMCs (Milecell Biotechnologies)
Experimental: as §1, §2, §3

[1] = 50 nM and 500 nM tested (concentration behind the class not stated)
[2] = compounds tested at 50 nM and 500 nM (concentration of the table not stated)

T1 sequence (P48729 whole entry): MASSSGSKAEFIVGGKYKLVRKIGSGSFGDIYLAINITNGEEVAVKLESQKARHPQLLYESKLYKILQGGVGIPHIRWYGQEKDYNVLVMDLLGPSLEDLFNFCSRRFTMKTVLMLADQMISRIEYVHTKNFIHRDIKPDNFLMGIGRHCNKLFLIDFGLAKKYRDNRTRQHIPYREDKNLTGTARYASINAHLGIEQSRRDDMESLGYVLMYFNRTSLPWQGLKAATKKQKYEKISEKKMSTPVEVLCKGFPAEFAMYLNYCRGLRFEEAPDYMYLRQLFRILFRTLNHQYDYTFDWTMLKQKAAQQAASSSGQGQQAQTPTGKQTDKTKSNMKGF
T1 sequence (Q96SW2 whole entry): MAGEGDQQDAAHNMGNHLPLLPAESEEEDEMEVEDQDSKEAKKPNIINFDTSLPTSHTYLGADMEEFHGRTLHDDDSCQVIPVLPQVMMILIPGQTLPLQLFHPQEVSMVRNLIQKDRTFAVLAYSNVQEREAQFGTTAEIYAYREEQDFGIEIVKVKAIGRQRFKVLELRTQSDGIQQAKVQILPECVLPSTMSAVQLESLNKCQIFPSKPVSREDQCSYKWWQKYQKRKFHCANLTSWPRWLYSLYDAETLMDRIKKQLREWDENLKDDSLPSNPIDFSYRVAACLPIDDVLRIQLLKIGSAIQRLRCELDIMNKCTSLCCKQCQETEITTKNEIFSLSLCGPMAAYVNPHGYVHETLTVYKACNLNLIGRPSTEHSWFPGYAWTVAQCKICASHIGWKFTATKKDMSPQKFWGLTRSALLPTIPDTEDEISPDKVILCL
T1 sequence (Q16531 whole entry partner): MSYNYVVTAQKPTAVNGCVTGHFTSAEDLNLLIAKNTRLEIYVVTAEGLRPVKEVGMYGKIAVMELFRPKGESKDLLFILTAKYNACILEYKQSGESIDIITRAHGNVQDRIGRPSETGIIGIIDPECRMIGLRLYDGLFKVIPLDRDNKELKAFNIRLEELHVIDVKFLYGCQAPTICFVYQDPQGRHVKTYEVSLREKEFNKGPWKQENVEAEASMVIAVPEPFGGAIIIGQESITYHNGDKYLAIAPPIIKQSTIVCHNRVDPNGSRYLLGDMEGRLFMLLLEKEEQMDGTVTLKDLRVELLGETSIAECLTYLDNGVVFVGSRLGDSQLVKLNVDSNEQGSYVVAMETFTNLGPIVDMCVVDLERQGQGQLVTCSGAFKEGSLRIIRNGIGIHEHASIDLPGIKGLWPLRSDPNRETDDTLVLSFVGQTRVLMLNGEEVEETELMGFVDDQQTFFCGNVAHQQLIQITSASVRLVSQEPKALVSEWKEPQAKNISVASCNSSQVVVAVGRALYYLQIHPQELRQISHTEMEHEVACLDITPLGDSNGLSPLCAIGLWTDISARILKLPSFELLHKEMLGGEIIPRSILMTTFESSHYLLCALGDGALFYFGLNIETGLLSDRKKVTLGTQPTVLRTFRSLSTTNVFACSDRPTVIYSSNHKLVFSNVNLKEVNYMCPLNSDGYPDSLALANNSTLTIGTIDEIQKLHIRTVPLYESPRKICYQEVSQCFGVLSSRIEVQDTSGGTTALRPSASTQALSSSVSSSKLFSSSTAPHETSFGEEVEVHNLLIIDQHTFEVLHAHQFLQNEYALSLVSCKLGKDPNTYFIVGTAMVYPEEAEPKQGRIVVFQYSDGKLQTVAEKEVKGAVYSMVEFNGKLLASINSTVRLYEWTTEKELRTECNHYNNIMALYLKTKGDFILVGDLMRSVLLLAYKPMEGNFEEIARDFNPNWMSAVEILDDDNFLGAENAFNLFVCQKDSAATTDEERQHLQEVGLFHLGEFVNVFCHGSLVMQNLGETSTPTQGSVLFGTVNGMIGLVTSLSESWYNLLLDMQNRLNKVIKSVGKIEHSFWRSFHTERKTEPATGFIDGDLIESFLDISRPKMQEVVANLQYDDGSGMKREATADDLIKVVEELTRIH
T5 sequence (Q13422 whole entry): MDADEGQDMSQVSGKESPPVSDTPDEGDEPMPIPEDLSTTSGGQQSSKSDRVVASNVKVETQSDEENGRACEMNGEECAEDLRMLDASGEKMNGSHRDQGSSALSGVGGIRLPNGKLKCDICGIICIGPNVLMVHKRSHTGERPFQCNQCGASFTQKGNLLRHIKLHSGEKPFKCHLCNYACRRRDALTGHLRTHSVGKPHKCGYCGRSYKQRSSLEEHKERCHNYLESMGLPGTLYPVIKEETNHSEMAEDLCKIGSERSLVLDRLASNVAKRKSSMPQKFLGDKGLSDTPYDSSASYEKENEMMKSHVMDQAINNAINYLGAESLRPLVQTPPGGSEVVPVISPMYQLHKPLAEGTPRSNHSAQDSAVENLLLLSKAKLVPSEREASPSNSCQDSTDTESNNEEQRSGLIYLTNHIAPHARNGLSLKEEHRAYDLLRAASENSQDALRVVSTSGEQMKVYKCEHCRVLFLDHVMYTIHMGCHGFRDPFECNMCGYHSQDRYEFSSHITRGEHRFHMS
T5 sequence (Q96SW2 whole entry): as the sequence (Q96SW2 whole entry) above
T5 sequence (Q16531 whole entry partner): as the sequence (Q16531 whole entry partner) above
T4 sequence (Q9UKT9 whole entry): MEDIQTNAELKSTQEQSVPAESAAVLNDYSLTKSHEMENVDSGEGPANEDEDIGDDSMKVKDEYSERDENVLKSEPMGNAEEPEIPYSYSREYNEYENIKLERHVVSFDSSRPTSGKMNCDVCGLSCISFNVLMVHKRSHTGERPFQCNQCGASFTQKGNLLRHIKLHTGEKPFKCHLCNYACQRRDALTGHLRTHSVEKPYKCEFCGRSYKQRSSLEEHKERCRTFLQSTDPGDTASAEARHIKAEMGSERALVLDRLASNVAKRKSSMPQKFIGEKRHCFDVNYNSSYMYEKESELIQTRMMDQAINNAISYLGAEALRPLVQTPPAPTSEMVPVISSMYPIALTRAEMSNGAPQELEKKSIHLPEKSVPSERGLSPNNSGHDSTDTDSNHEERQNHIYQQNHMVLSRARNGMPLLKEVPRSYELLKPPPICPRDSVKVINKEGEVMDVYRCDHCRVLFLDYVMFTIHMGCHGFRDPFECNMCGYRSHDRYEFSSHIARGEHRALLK
T4 sequence (Q96SW2 whole entry): as the sequence (Q96SW2 whole entry) above
T4 sequence (Q16531 whole entry partner): as the sequence (Q16531 whole entry partner) above
T2 sequence (Q9UKS7 whole entry): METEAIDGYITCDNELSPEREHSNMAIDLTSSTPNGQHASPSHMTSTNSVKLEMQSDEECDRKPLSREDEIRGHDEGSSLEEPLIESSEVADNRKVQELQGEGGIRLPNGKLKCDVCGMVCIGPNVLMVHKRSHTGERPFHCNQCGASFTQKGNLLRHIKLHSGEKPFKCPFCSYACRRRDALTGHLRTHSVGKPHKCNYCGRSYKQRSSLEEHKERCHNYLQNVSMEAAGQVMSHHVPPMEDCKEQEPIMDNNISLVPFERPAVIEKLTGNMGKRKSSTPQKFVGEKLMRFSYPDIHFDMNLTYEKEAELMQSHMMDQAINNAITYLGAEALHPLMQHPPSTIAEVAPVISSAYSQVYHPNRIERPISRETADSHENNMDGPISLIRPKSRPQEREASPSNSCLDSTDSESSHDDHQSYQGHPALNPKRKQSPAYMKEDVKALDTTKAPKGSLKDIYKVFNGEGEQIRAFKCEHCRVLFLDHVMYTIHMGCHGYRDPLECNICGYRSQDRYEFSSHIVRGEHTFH
T2 sequence (Q96SW2 whole entry): as the sequence (Q96SW2 whole entry) above
T2 sequence (Q16531 whole entry partner): as the sequence (Q16531 whole entry partner) above
T3 sequence (P15170 whole entry): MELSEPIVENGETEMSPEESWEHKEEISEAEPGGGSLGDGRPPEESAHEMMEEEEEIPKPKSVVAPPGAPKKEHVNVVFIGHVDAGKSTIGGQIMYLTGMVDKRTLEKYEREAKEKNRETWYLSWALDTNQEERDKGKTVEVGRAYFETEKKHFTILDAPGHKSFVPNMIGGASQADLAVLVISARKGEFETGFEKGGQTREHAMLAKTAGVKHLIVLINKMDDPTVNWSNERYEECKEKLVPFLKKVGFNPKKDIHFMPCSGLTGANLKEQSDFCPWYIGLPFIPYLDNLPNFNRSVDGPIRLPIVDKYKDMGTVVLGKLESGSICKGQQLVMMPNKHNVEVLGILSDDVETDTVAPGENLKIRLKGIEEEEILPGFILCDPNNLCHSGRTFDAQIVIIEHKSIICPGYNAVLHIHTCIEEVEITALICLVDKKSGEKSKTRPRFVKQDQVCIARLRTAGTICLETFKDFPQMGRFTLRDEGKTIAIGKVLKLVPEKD
T3 sequence (Q96SW2 whole entry): as the sequence (Q96SW2 whole entry) above
T3 sequence (Q16531 whole entry partner): as the sequence (Q16531 whole entry partner) above

SMILES | CK1a substrate protein remaining % (CK1α; [1]) | IKZF2 substrate protein remaining % (IKZF2; [1]) | GSPT1 substrate protein remaining % (GSPT1; [1]) | IKZF3 substrate protein remaining % (IKZF3; [1]) | IKZF 1 substrate protein remaining % (IKZF1; [1]) | Weel substrate protein remaining % (WEE1; [1]) | CK1a substrate protein remaining % (CK1α; [2]) | IKZF2 substrate protein remaining % (IKZF2; [2]) | GSPT1 substrate protein remaining % (GSPT1; [2]) | IKZF3 substrate protein remaining % (IKZF3; [2]) | IKZF 1 substrate protein remaining % (IKZF1; [2]) | Weel substrate protein remaining % (WEE1; [2])
O=C1CCC(N2C(=O)c3ccc(CN4CCN(c5ncc(Cl)cc5Cl)CC4)cc3C2=O)C(=O)N1 (stereo not drawn) [GT-06532, 5-((4-(3,5-dichloropyridin-2-yl)piperazin-1-yl)methyl)-2-(2,6-dioxopiperidin-3-yl)isoindoline-1,3-dione] | B (80%< substrate protein remaining %≤ 100%) | B (80%< substrate protein remaining %≤ 100%) | A (0% ≤ substrate protein remaining % ≤ 80%) | B (80%< substrate protein remaining %≤ 100%) | B (80%< substrate protein remaining %≤ 100%) | B (80%< substrate protein remaining %≤ 100%) |  |  |  |  |  | 
Cc1cc(C2CCN(Cc3ccc4c(c3)C(=O)N(C3CCC(=O)NC3=O)C4=O)CC2)cs1 (stereo not drawn) [GT-06283, 2-(2,6-dioxopiperidin-3-yl)-5-((4-(5-methylthiophen-3-yl)piperidin-1-yl)methyl)isoindoline-1,3-dione] | B (80%< substrate protein remaining %≤ 100%) | B (80%< substrate protein remaining %≤ 100%) | A (0% ≤ substrate protein remaining % ≤ 80%) | B (80%< substrate protein remaining %≤ 100%) | B (80%< substrate protein remaining %≤ 100%) | B (80%< substrate protein remaining %≤ 100%) |  |  |  |  |  | 
O=C1CCC(N2C(=O)c3ccc(CN4CCN(c5ccccc5)CC4)cc3C2=O)C(=O)N1 (stereo not drawn) [GT-06286, 2-(2,6-dioxopiperidin-3-yl)-5-((4-phenylpiperazin-1-yl)methyl)isoindoline-1,3-dione] | B (80%< substrate protein remaining %≤ 100%) | B (80%< substrate protein remaining %≤ 100%) | A (0% ≤ substrate protein remaining % ≤ 80%) | B (80%< substrate protein remaining %≤ 100%) | B (80%< substrate protein remaining %≤ 100%) | B (80%< substrate protein remaining %≤ 100%) |  |  |  |  |  | 
O=C1CCC(N2C(=O)c3ccc(CN4CCN(c5ccncc5Br)CC4)cc3C2=O)C(=O)N1 (stereo not drawn) [GT-06556, 5-((4-(3-bromopyridin-4-yl)piperazin-1-yl)methyl)-2-(2,6-dioxopiperidin-3-yl)isoindoline-1,3-dione] | B (80%< substrate protein remaining %≤ 100%) | A (0% ≤ substrate protein remaining % ≤ 80%) | A (0% ≤ substrate protein remaining % ≤ 80%) | B (80%< substrate protein remaining %≤ 100%) | B (80%< substrate protein remaining %≤ 100%) | B (80%< substrate protein remaining %≤ 100%) |  |  |  |  |  | 
O=C1CCC(N2C(=O)c3ccc(CN4CCC(c5ccc(Cl)cc5)CC4)cc3C2=O)C(=O)N1 (stereo not drawn) [GT-06372, 5-((4-(4-chlorophenyl)piperidin-1-yl)methyl)-2-(2,6-dioxopiperidin-3-yl)isoindoline-1,3-dione] | B (80%< substrate protein remaining %≤ 100%) | A (0% ≤ substrate protein remaining % ≤ 80%) | A (0% ≤ substrate protein remaining % ≤ 80%) | B (80%< substrate protein remaining %≤ 100%) | A (0% ≤ substrate protein remaining % ≤ 80%) | A (0% ≤ substrate protein remaining % ≤ 80%) |  |  |  |  |  | 
O=C1CCC(N2C(=O)c3ccc(CN4CCN(c5cccc(F)c5)CC4)cc3C2=O)C(=O)N1 (stereo not drawn) [GT-06291, 2-(2,6-dioxopiperidin-3-yl)-5-((4-(3-fluorophenyl)piperazin-1-yl)methyl)isoindoline-1,3-dione] | B (80%< substrate protein remaining %≤ 100%) | B (80%< substrate protein remaining %≤ 100%) | A (0% ≤ substrate protein remaining % ≤ 80%) | B (80%< substrate protein remaining %≤ 100%) | B (80%< substrate protein remaining %≤ 100%) | B (80%< substrate protein remaining %≤ 100%) |  |  |  |  |  | 
O=C1CCC(N2C(=O)c3ccc(CN4CCC(c5cccc6cnccc56)CC4)cc3C2=O)C(=O)N1 (stereo not drawn) [GT-06266, 2-(2,6-dioxopiperidin-3-yl)-5-((4-(isoquinolin-5-yl)piperidin-1-yl)methyl)isoindoline-1,3-dione] |  |  |  |  |  |  | B (80%< substrate protein remaining %≤ 100%) | A (0% ≤ substrate protein remaining % ≤ 80%) | B (80%< substrate protein remaining %≤ 100%) | B (80%< substrate protein remaining %≤ 100%) | B (80%< substrate protein remaining %≤ 100%) | B (80%< substrate protein remaining %≤ 100%)
O=C1CCC(N2C(=O)c3ccc(CN4CCN(c5ccccn5)CC4)cc3C2=O)C(=O)N1 (stereo not drawn) [GT-06521, 2-(2,6-dioxopiperidin-3-yl)-5-((4-(pyridin-2-yl)piperazin-1-yl)methyl)isoindoline-1,3-dione] | B (80%< substrate protein remaining %≤ 100%) | B (80%< substrate protein remaining %≤ 100%) | A (0% ≤ substrate protein remaining % ≤ 80%) | B (80%< substrate protein remaining %≤ 100%) | B (80%< substrate protein remaining %≤ 100%) | B (80%< substrate protein remaining %≤ 100%) |  |  |  |  |  | 
O=C1CCC(N2C(=O)c3ccc(CN4CCN(c5ccc(Br)cc5)CC4)cc3C2=O)C(=O)N1 (stereo not drawn) [GT-06295, 5-((4-(4-bromophenyl)piperazin-1-yl)methyl)-2-(2,6-dioxopiperidin-3-yl)isoindoline-1,3-dione] | B (80%< substrate protein remaining %≤ 100%) | B (80%< substrate protein remaining %≤ 100%) | A (0% ≤ substrate protein remaining % ≤ 80%) | B (80%< substrate protein remaining %≤ 100%) | B (80%< substrate protein remaining %≤ 100%) | B (80%< substrate protein remaining %≤ 100%) |  |  |  |  |  | 
O=C1CCC(N2C(=O)c3ccc(CN4CCN(c5c[nH]c6ncccc56)CC4)cc3C2=O)C(=O)N1 (stereo not drawn) [GT-06707, 5-((4-(1H-pyrrolo[2,3-b]pyridin-3-yl)piperazin-1-yl)methyl)-2-(2,6-dioxopiperidin-3-yl)isoindoline-1,3-dione] | A (0% ≤ substrate protein remaining % ≤ 80%) | B (80%< substrate protein remaining %≤ 100%) | A (0% ≤ substrate protein remaining % ≤ 80%) | A (0% ≤ substrate protein remaining % ≤ 80%) | B (80%< substrate protein remaining %≤ 100%) | A (0% ≤ substrate protein remaining % ≤ 80%) |  |  |  |  |  | 
O=C1CCC(N2C(=O)c3ccc(CN4CCCN(c5cccc(Cl)c5Cl)CC4)cc3C2=O)C(=O)N1 (stereo not drawn) [GT-06695, 5-((4-(2,3-dichlorophenyl)-1,4-diazepan-1-yl)methyl)-2-(2,6-dioxopiperidin-3-yl)isoindoline-1,3-dione] | B (80%< substrate protein remaining %≤ 100%) | A (0% ≤ substrate protein remaining % ≤ 80%) | A (0% ≤ substrate protein remaining % ≤ 80%) | B (80%< substrate protein remaining %≤ 100%) | B (80%< substrate protein remaining %≤ 100%) | B (80%< substrate protein remaining %≤ 100%) |  |  |  |  |  | 
